Data reported in patent publication US12162867B2, “Inhibitors of RNA helicase DHX9 and uses thereof” (ACCENT THERAPEUTICS, INC., priority 2022, dated 2024).
Where two headings read alike, the source gives them in different places.

Key:
Type in all cases: cell-based
LS411N cells = test: DHX9 cellular proliferation assay (CellTiter-Glo), LS411N (CRC-MSI); conditions: Homo sapiens, LS-411N, read-out: LS411N (CRC-MSI-H) Antiproliferative IC50
[1] = tested on: circBRIP1 in HCT116 cells; test: DHX9 circBRIP1 cellular target engagement SYBR Green assay (qPCR); conditions: Homo sapiens, HCT-116, circBRIP1, HCT116 cells, read-out: DHX9 Cellular Target Engagement EC50
NCI-H747 cells = test: DHX9 cellular proliferation assay (CellTiter-Glo), NCI-H747 (CRC-MSS); conditions: Homo sapiens
[2] = tested on: circBRIP1 in HCT116 cells; test: DHX9 circBRIP1 cellular target engagement TaqMan Multiplex assay (qPCR); conditions: Homo sapiens, read-out: DHX9 Cellular Target Engagement EC50
[3] = LS411N, CRC-MSI-H, performed at Pharmaron
[4] = NCI-H747, NCI-H747, CRC-MSS, performed at Pharmaron, read-out: H747 (CRC-MSS) Antiproliferative IC50
[5] = NCI-H747, NCI-H747, performed at Pharmaron, read-out: H747 (CRC-MSS) Antiproliferative IC50
[6] = HCT-116, circBRIP1, HCT116 cells, * Taqman assay was used
[7] = HCT-116, 72 h, circBRIP1, HCT116 cells, 72 hours, Taqman assay (marked *)

Cc1cc(C(=O)Nc2cc(Cl)cc(NS(C)(=O)=O)c2)cn1-c1ccc(N2CC3(COC3)C2)cn1 [Example 276]
IC50 (LS411N cells; [3]): 61.7 nM | EC50 ([1]; SyBr assay (marked ^+)): 64.2 nM | IC50 (NCI-H747 cells; [4]): > 10000 nM

CS(=O)(=O)Nc1cc(Br)cc(NC(=O)c2cnn(-c3ccc(N4CCOCC4)cn3)c2)c1 [Example 55]
IC50 (LS411N cells; [3]): 1060 nM | EC50 ([1]; SyBr assay (marked ^+)): 143 nM | IC50 (NCI-H747 cells; [4]): > 10000 nM

CC(Oc1cccnc1-c1cc(C(=O)Nc2cc(Cl)cc(NS(C)(=O)=O)c2)cn1C)c1cc(F)cc(C(F)(F)F)c1 (single isomer, unassigned) [Example 629, N-(3-chloro-5-methanesulfonamidophenyl)-5-{3-[1-[3-fluoro-5-(trifluoromethyl)phenyl]ethoxy]pyridin-2-yl}-1-methyl-1H-pyrrole-3-carboxamide]
IC50 (LS411N cells; LS411N, performed at Pharmaron): 69.2 nM | IC50 (NCI-H747 cells; [5]): > 10000 nM

CS(=O)(=O)Nc1cc(Cl)cc(NC(=O)c2cc(-c3ncccc3Nc3ncccn3)cs2)c1 [Example 237]
IC50 (LS411N cells; [3]): 249 nM | EC50 ([1]; SyBr assay (marked ^+)): 1910 nM | IC50 (NCI-H747 cells; [4]): 3780 nM

Cc1cc(C(=O)Nc2cc(Cl)cc(NS(C)(=O)=O)c2)cn1-c1ncccc1O [Example 281]
IC50 (LS411N cells; [3]): 367 nM | EC50 ([1]; SyBr assay (marked ^+)): 483 nM | IC50 (NCI-H747 cells; [4]): 7340 nM

Cc1cccc(OCc2cccc(F)c2)c1-n1cc(C(=O)Nc2cc(Cl)cc(NS(C)(=O)=O)c2)cn1 [Example 255]
IC50 (LS411N cells; [3]): 74.3 nM | EC50 ([1]; SyBr assay (marked ^+)): 378 nM | IC50 (NCI-H747 cells; [4]): > 10000 nM

Cc1cccnc1-c1nc(C(=O)Nc2cc(Br)cc(NS(C)(=O)=O)c2)cn1C [Example 96, N-(3-bromo-5-(methylsulfonamido)phenyl)-1-methyl-2-(3-methylpyridin-2-yl)-1H-imidazole-4-carboxamide]
IC50 (LS411N cells; [3]): > 10000 nM | EC50 ([1]; SyBr assay (marked ^+)): 9630 nM | IC50 (NCI-H747 cells; [4]): > 10000 nM

CCOc1ccc(-c2cc(C(=O)Nc3cc(Cl)cc(NS(C)(=O)=O)c3)cn2C)nc1 [Example 572]
IC50 (LS411N cells; LS411N, performed at Pharmaron): 144 nM | EC50 ([1]; ^+ SyBr assay was used): 55.1 nM | IC50 (NCI-H747 cells; [5]): > 10000 nM

COCCOc1ccc(-n2cc(C(=O)Nc3cc(Cl)cc(NS(C)(=O)=O)c3)cc2C)nc1 [Example 442]
IC50 (LS411N cells; LS411N, performed at Pharmaron): 123 nM | EC50 ([1]; ^+ SyBr assay was used): 46 nM | IC50 (NCI-H747 cells; [5]): > 10000 nM

Cn1cc(C(=O)Nc2cc(Cl)cc(NS(C)(=O)=O)c2)cc1-c1ccc(N2CCC2)cn1 [Example 538]
IC50 (LS411N cells; LS411N, performed at Pharmaron): 124 nM | EC50 ([1]; ^+ SyBr assay was used): 57.4 nM | IC50 (NCI-H747 cells; [5]): 3620 nM

Cc1sc(C(=O)Nc2cc(Cl)cc(NS(C)(=O)=O)c2)cc1-c1ncccn1 [Example 22]
IC50 (LS411N cells; [3]): 115 nM | EC50 ([1]; SyBr assay (marked ^+)): 35.8 nM | IC50 (NCI-H747 cells; [4]): > 10000 nM

Cn1cc(C(=O)Nc2cc(Cl)cc(NS(C)(=O)=O)c2)cc1-c1ncccc1OCc1nccs1 [Example 279]
IC50 (LS411N cells; [3]): 81.1 nM | EC50 ([1]; SyBr assay (marked ^+)): 53.3 nM | IC50 (NCI-H747 cells; [4]): > 10000 nM

COc1cnc(-c2csc(C(=O)Nc3cc(Cl)cc(NS(C)(=O)=O)c3)c2)nc1 [Example 340]
IC50 (LS411N cells; [3]): 118 nM | EC50 ([1]; SyBr assay (marked ^+)): 106 nM | IC50 (NCI-H747 cells; [4]): > 10000 nM

CS(=O)(=O)Nc1cc(F)cc(NC(=O)c2cc(-c3ncccc3OCc3ccccc3)cs2)c1 [Example 214]
IC50 (LS411N cells; [3]): 203 nM | EC50 ([1]; SyBr assay (marked ^+)): 106 nM | IC50 (NCI-H747 cells; [4]): 7150 nM

Cc1ccc(-n2cc(C(=O)Nc3cc(Br)cc(NS(C)(=O)=O)c3)cn2)nc1 [Example 42]
IC50 (LS411N cells; [3]): 917 nM | EC50 ([1]; SyBr assay (marked ^+)): 308 nM | IC50 (NCI-H747 cells; [4]): > 10000 nM

Cc1cccnc1-c1cc(C(=O)Nc2cc(Br)cc(NS(C)(=O)=O)c2)cn1C [Example 84, N-(3-bromo-5-(methylsulfonamido)phenyl)-1-methyl-5-(3-methylpyridin-2-yl)-1H-pyrrole-3-carboxamide]
IC50 (LS411N cells): 385 nM | EC50 ([1]; SyBr assay (marked ^+)): 194 nM | IC50 (NCI-H747 cells; NCI-H747, read-out: H747 (CRC-MSS) Antiproliferative IC50): > 10000 nM

CS(=O)(=O)Nc1cc(Cl)cc(NC(=O)c2cc(-c3ncc(F)cc3OCc3cncc(F)c3)cs2)c1 [Example 225]
IC50 (LS411N cells; [3]): 43.9 nM | EC50 ([1]; SyBr assay (marked ^+)): 19.9 nM | IC50 (NCI-H747 cells; [4]): > 10000 nM

CCOc1cnc(-c2csc(C(=O)Nc3cc(Cl)cc(NS(C)(=O)=O)c3)c2)nc1 [Example 342]
IC50 (LS411N cells; [3]): 133 nM | EC50 ([1]; SyBr assay (marked ^+)): 47.8 nM | IC50 (NCI-H747 cells; [4]): > 10000 nM

CS(=O)(=O)Nc1cc(Cl)cc(NC(=O)c2cnn(-c3ncccc3OCc3cc(F)cc(F)c3)c2)c1 [Example 187]
IC50 (LS411N cells; [3]): 77.3 nM | IC50 (NCI-H747 cells; [4]): > 10000 nM

Cc1sc(C(=O)Nc2cc(Cl)cc(NS(C)(=O)=O)c2)cc1-c1ncc(N2CC(C(F)(F)F)C2)cc1F [Example 460, N-(3-chloro-5-(methylsulfonamido)phenyl)-4-(3-fluoro-5-(3-(trifluoromethyl)azetidin-1-yl)pyridin-2-yl)-5-methylthiophene-2-carboxamide]
IC50 (NCI-H747 cells; [5]): 3800 nM

Cc1sc(C(=O)Nc2cc(Cl)cc(NS(C)(=O)=O)c2)cc1-c1ncccc1OC(C)c1cncc(F)c1 (centres unmarked) [Example 630]
IC50 (LS411N cells; LS411N, performed at Pharmaron): 98.3 nM | EC50 [2, 6]: 89.2 nM

Cc1cc(C(=O)Nc2cc(Cl)cc(NS(C)(=O)=O)c2)cn1-c1ccc(OC2COC2)cn1 [Example 668]
EC50 [2, 6]: 220 nM

Cc1cc(C(=O)Nc2cc(Cl)cc(NS(C)(=O)=O)c2)cn1-c1ncc(F)cc1F [Example 444]
EC50 [2, 6]: 160 nM

CCc1sc(C(=O)Nc2cc(Cl)cc(NS(C)(=O)=O)c2)cc1-c1ncccc1F [Example 587]
EC50 [2, 6]: 128 nM

Cn1cc(C(=O)Nc2cc(Cl)cc(NS(C)(=O)=O)c2)cc1-c1ncc(F)cc1OCc1nnnn1C [Example 625]
EC50 [2, 6]: 1010 nM

Cc1sc(C(=O)Nc2cc(Cl)cc(NS(C)(=O)=O)c2)cc1-c1ncc(P(C)(C)=O)cn1 [Example 648]
EC50 [2, 6]: 471 nM

CN1CC[C@@H](Oc2cnc(-c3cc(C(=O)Nc4cc(Cl)cc(NS(C)(=O)=O)c4)cn3CC(F)(F)F)nc2)C1 [Example 641]
EC50 [2, 6]: 55.2 nM

Cn1cc(C(=O)Nc2cc(Cl)cc(NS(C)(=O)=O)c2)cc1-c1ccc(N2CCN(C(=O)C3CCC3)CC2)cn1 [Example 593]
EC50 [2, 6]: 170 nM

Cc1cc(C(=O)Nc2cc(Cl)cc(NS(C)(=O)=O)c2)cn1-c1ncc(F)cc1-c1cncc(F)c1 [Example 666]
EC50 [2, 6]: 427 nM

Cc1nc(COc2cc(F)cnc2-c2cc(C(=O)Nc3cc(Cl)cc(NS(C)(=O)=O)c3)cn2C)cs1 [Example 724]
EC50 [2, 6]: 224 nM

Cn1cc(C(=O)Nc2cc(Cl)cc(NS(=O)(=O)C3CC3)c2)cc1-c1ccc(N2CC(F)(F)C2)cn1 [Example 530]
EC50 [2, 6]: > 10000 nM

Cc1sc(C(=O)Nc2cc(Cl)cc(NS(C)(=O)=O)c2)cc1-c1ncc(F)cc1N1CCS(=O)(=O)CC1 [Example 503]
EC50 [2, 6]: 9030 nM

CS(=O)(=O)Nc1cc(Cl)cc(NC(=O)c2cc(-c3ccc(N4CC(F)(F)C4)cn3)cs2)c1 [Example 487]
EC50 [2, 6]: 654 nM

CCS(=O)(=O)Nc1cc(Cl)cc(NC(=O)c2cc(-c3ncc(F)cc3C)c(C)s2)c1 [Example 350]
EC50 [2, 7]: 257 nM

CN1CC(Oc2cnc(-c3cc(C(=O)Nc4cc(Cl)cc(NS(C)(=O)=O)c4)cn3CC(F)(F)F)c(F)c2)C1 [Example 638]
EC50 [2, 6]: 62.1 nM

Cc1cc(C(=O)Nc2cc(Cl)cc(NS(C)(=O)=O)c2)cn1-c1ncc(N2CCOC2=O)cn1 [Example 417]
EC50 [2, 6]: 223 nM

Cn1cc(C(=O)Nc2cc(Cl)cc(NS(C)(=O)=O)c2)cc1-c1ccc(N2CC3(C2)CC(F)(F)C3)cn1 [Example 498]
EC50 [2, 6]: 131 nM

Cc1cc(N2CCC(F)(F)CC2)cnc1-c1cc(C(=O)Nc2cc(Cl)cc(NS(C)(=O)=O)c2)cn1C [Example 600]
EC50 [2, 6]: 186 nM

CCc1sc(C(=O)Nc2cc(Cl)cc(NS(C)(=O)=O)c2)cc1-c1ncc(F)cc1F [Example 588]
EC50 [2, 6]: 461 nM

Cn1cc(C(=O)Nc2cc(Cl)cc(NS(=O)(=O)CCO)c2)cc1-c1ncc(F)cc1F [Example 581]
EC50 [2, 6]: 1680 nM

Cc1sc(C(=O)Nc2cc(Cl)cc(NS(C)(=O)=O)c2)cc1-c1ncc(C#N)cc1F [Example 375]
EC50 [2, 7]: 680 nM

Cc1sc(C(=O)Nc2cc(Cl)cc(NS(C)(=O)=O)c2)cc1-c1ncc(OC(C)CO)cn1 (centres unmarked) [Example 677]
EC50 [2, 6]: 13.7 nM

Cn1cc(C(=O)Nc2cc(Cl)cc(NS(C)(=O)=O)c2)cc1-c1ncc(F)cc1OCc1cnnn1C [Example 726]
EC50 [2, 6]: 320 nM

Cc1sc(C(=O)Nc2cc(Cl)cc(NS(C)(=O)=O)c2)cc1-c1ncc(C(F)(F)F)cc1C#N [Example 367]
EC50 [2, 7]: 219 nM

Cc1sc(C(=O)Nc2cc(Cl)cc(NS(C)(=O)=O)c2)cc1-c1ncc(F)cc1N1CCN(S(C)(=O)=O)CC1 [Example 506]
EC50 [2, 6]: 725 nM

Cc1cc(F)cc(C#N)c1-c1cc(C(=O)Nc2cc(Cl)cc(NS(C)(=O)=O)c2)cn1C [Example 659]
EC50 [2, 6]: > 10000 nM
